Source: US7935869B2, “Chimeric gene with several herbicide tolerance genes, plant cell and plant resistant to several herbicides” (Bayer S.A.S., priority 1996, dated 2011)
pIC50: −log10 of the molar value. Where two headings read alike, the source gives them in different places.

Tests used:
[1] = test system: PBD6 tobacco transformed with pRP 2012; assay: Tolerance of tobacco transformed with chimeric gene pRP 2012 (HPPD + double mutant EPSPS); type: in vivo; details: under the conditions described in Example 7
Protocol: The chimeric gene pRP 2012 described below is transferred into the PBD6 industrial tobacco according to the transformation and regeneration procedures already described in European Application EP No. 0 508 909.
The regeneration of the PBD6 tobacco (source SEITA France) from foliar explants is carried out on a Murashige and Skoog (MS) basal medium comprising 30 g/l of sucrose and 350 mg/l of cefotaxime and 1 mg/l of isoxaflutole. The foliar explants are removed from is greenhouse plants or in vitro and transformed according to the foliar disc technique (Science 1985, Vol. 227, p. 1229-1231) in three successive stages: the first comprises the induction of shoots on an MS medium supplemented with 30 g/l of sucrose containing 0.05 mg/l of naphthylacetic acid (ANA) and 2 mg/l of benzylaminopurine (BAP) for 15 days and 1 mg/l of isoxaflutole. The green shoots formed during this stage are then developed by culturing on an MS medium supplemented with 30 g/l of sucrose and 1 mg/l of isoxaflutole but containing no hormone, for 10 days. The shoots that have developed are then removed and they are cultured on MS rooting medium with half the content of salts, vitamins and sugars and 1 mg/l of isoxaflutole and containing no hormone. […]
All the plants obtained according to this protocol are analysed by PCR with primers specific for P. fluorescens HPPD. […]

[2] = test system: PBD6 tobacco plants HPPD + EPSPS; assay: Postemergence tolerance of tobacco, percentage destruction; type: in vivo; details: 17 days after treatment
Protocol: (§1) In this trial, each test is performed on a sample of 10 plants, 10 plants being kept untreated.
(§2) All the treatments are performed by spraying at the rate of 500 l of spraying mixture per hectare.
(§3) For the postemergence treatment, sowing is performed and then the plants are transplanted in 9 cm×9 cm pots.
The postemergence treatments are carried out at a well developed stage (3-4 leaves). Batches of plants, respectively wild-type and genetically transformed, obtained above are divided into several parts, with:
Under these conditions, the following phytotoxicities are observed 17 days after the treatment, expressed as percentage destruction indicated in the following table, as well as the number of plants per batch and the doses of herbicide(s) expressed in gram of active substance per hectare: […]

[3] = test system: maize EPSPS mutant Ser106; assay: EPSP synthase enzymatic activity, resistance to glyphosate in vitro; type: biochemical; details: 0.12 mM glyphosate
Protocol: (§4) The various EPSP synthase genes are introduced in the form of an NcoI-HindIII cassette into the plasmid is vector pTrc99a (Pharmacia, ref: 27-5007-01) cut with NcoI and HindIII. The recombinant E. coli DH10B overexpressing the various EPSP syntheses are sonicated in 40 ml of buffer per 10 g of culotted cells and washed with this same buffer (200 mM Tris-HCl pH 7.8, 50 mM mercaptoethanol, 5 mM EDTA and 1 mM PMSF), to which 1 g of polyvinylpyrrolidone is added. The suspension is stirred for 15 minutes at 4° C. and then centrifuged for 20 minutes at 27,000 g and at 4° C.
(§5) The supernatant is supplemented with ammonium sulphate so as to bring the solution to 40% saturation with ammonium sulphate. The mixture is centrifuged for 20 minutes at 27,000 g and at 4° C. The new supernatant is supplemented with ammonium sulphate so as to bring the solution to 70% saturation with ammonium sulphate. The mixture is centrifuged for 30 minutes at 27,000 g and at 4° C. The EPSP synthase present in this protein pellet is taken up in 1 ml of buffer (20 mM Tris-HCl pH 7.8 and 50 mM mercaptoethanol). This solution is dialysed overnight against two litres of this same buffer at 4° C.
(§6) The activity of each enzyme as well as its resistance to glyphosate is measured in vitro over 10 minutes at 37° C. in the following reaction mixture: 100 mM maleic acid pH 5.6, 1 mM phosphoenol pyruvate, 3 mM shikimate-3-phosphate (prepared according to Knowles P. P. and Sprinson D. B., 1970, Methods in Enzymol., 17A, 351-352 from Aerobacter aerogenes strain ATCC 25597) and 10 mM potassium fluoride. The enzymatic extract is added at the last moment after the addition of glyphosate whose final concentration varies from 0 to 20 mM.
(§7) The activity is measured by assaying the phosphate liberated according to the technique of Tausky H. A. and Shorr B., 1953, J. Biol. Chem., 202, 675-685.

[4] = test system: maize EPSPS mutant Ala 101/Ile 102; assay: as above; type: biochemical
Protocol: as §4, §5, §6, §7

[5] = test system: maize EPSPS mutant Ala; assay: as above; type: biochemical
Protocol: as §4, §5, §6, §7

[6] = target: T1, maize EPSPS mutant Ile 102 (Zea mays, UniProt A0A1D6NVZ6, T164I); assay: as above; type: biochemical
T1 sequence (A0A1D6NVZ6 63-506 T164I): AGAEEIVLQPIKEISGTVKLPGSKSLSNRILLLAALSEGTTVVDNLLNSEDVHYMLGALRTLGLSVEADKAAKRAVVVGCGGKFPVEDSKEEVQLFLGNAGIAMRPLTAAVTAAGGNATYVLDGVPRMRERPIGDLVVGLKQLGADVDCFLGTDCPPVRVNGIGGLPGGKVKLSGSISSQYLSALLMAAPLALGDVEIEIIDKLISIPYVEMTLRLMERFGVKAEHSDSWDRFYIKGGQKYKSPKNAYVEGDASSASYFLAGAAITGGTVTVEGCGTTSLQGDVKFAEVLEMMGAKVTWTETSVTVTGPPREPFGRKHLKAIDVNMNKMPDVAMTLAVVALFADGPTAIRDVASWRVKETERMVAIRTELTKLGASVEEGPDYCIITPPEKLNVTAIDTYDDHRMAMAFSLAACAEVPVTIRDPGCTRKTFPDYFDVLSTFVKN
Protocol: as §4, §5, §6, §7

[7] = test system: maize EPSPS mutant Ile 102/Ser 106; assay: as above; type: biochemical
Protocol: as §4, §5, §6, §7

[8] = test system: wild-type (WT) maize EPSPS; assay: as above; type: biochemical; details: 0.12 mM glyphosate; 10 minutes at 37° C., pH 5.6
Protocol: as §4, §5, §6, §7

[9] = test system: wild-type tobacco without tolerance gene; assay: Postemergence tolerance of tobacco, percentage destruction; type: in vivo; details: 17 days after treatment
Protocol: as §1, §2, §3
(§8) The postemergence treatments are carried out at a well developed stage (3-4 leaves). Batches of plants, respectively wild-type and genetically transformed, obtained above are divided into several parts, with: […]

[10] = test system: PBD6 tobacco overexpressing the P. fluorescens HPPD; assay: Greenhouse treatment of transformed tobacco overexpressing HPPD with isoxaflutole; type: in vivo
Text: To determine the efficiency of these two chimeric genes, they were transferred into the industrial tobacco PBD6 according to the transformation and regeneration techniques already described in European Application EP No. 0 508 909.
The vector is introduced into the non oncogenic Agrobacterium EHA 101 strain (Hood et al., 1987) carrying the cosmaid pTVK 291 (Komari et al., 1986). The transformation technique is based on the procedure by Horsh R. et al., (1985) Science, 227, 1229-1231.
The regeneration of the PBD6 tobacco (source SEITA France) from foliar explants is carried out on a Murashige and Skoog (MS) basal medium comprising 30 g/l of sucrose and 100 μg/ml of kanamycin. The foliar explants are removed from greenhouse plants or in vitro and transformed according to the foliar disc technique (Science 1985, Vol. 227, p. 1229-1231) in three successive stages: the first comprises the induction of shoots on an MS medium supplemented with 30 g/l of sucrose containing 0.05 mg/l of naphthylacetic acid (ANA) and 2 mg/l of benzylaminopurine (BAP) for 15 days. The shoots formed during this stage are then developed by culturing on an MS medium supplemented with 30 g/l of sucrose but containing no hormone, for 10 days. […]

[11] = test system: PBD6 tobacco plants HPPD + OXY; assay: Postemergence tolerance of tobacco, percentage destruction; type: in vivo; details: 17 days after treatment
Protocol: as §1, §2, §3, §8

[12] = test system: control tobacco, not transformed (PBD6); assay: Greenhouse treatment of non-transformed control tobacco with isoxaflutole; type: in vivo
Protocol: Upon leaving in vitro, the transformed tobacco plantlets were acclimatized in a greenhouse (60% relative humidity, temperature: 20° C. at night and 23° C. during the day) for five weeks and then treated with 4-[4-CF3-2-(methylsulphonyl)benzoyl]-5-cyclopropylisoxazole.
The control tobacco, not transformed and treated with 4-[4-CF3-2-(methylsulphonyl)benzoyl]-5-cyclopropylisooxazole at doses ranging from 50 to 400 g/ha, develop chlorosis in about 72 hours, which intensifies and develops into very pronounced necrosis within one week (covering about 80% of the terminal leaves).

[13] = test system: maize genotype 261 2B 459 (progeny of HPPD-transformed plants); assay: Selection of maize seeds on sand after isoxaflutole treatment; type: in vivo; details: 10 seeds sown
Protocol: (§9) The transformed plants obtained above produced pollen, assumed in part to be transgenic, which fertilized ovules from a nontransgenic wild-type maize. The seeds obtained are selected on sand after treating with isoxaflutole.
(§10) The selection protocol is the following: 800 ml of Fontainebleau sand are placed in a tub with sides 15×20 cm. These tubs are then sprayed with water and kept hydrated by supplying a nutritive solution consisting of 5 ml of Quinoligo (Quinoline) per litre of water. […] The tubs are then placed in culture in a greenhouse.

[14] = test system: maize genotype 261 2A2 (progeny of HPPD-transformed plants); assay: as above; type: in vivo; details: 10 seeds sown
Protocol: as §9, §10

[15] = test system: maize genotype 261 2D2 (progeny of HPPD-transformed plants); assay: as above; type: in vivo; details: 10 seeds sown
Protocol: as §9, §10

[16] = test system: nontransgenic maize; assay: as above; type: in vivo; details: 100 g/ha, 20 seeds sown
Protocol: as §9
The selection protocol is the following: 800 ml of Fontainebleau sand are placed in a tub with sides 15×20 cm. These tubs are then sprayed with water and kept hydrated by supplying a nutritive solution consisting of 5 ml of Quinoligo (Quinoline) per litre of water. Twenty maize seeds are placed on the tubs, which are then treated with isoxaflutole by spraying at the rate of 100 to 200 g of active substance per hectare (300 or 600 μg of active substance per tub). The tubs are then placed in culture in a greenhouse.

O=C(O)CNCP(=O)(O)O [glyphosate]
tolerance [1]: tolerant | phytotoxicity, percentage destruction ([2]; 800 g/ha postemergence): 0% | phytotoxicity, percentage destruction ([2]; 1200 g/ha postemergence): 0% | inhibition of enzyme activity [3]: 50% | inhibition of enzyme activity ([4]; 0.12 mM glyphosate): not or not strongly inhibited | inhibition of enzyme activity ([4]; 1.2 mM glyphosate): not being inhibited | inhibition of enzyme activity ([4]; up to concentrations of 10 m glyphosate): not inhibited | inhibition of enzyme activity [5]: not inhibited | inhibition of enzyme activity ([5]; 1.2 mM glyphosate): not being inhibited | inhibition of enzyme activity ([6]; 0.12 mM glyphosate): not or not strongly inhibited | pIC50 ([6]; 10 minutes at 37° C., pH 5.6, read-out: glyphosate concentration to inhibit the enzyme by 50%): 2.92 | inhibition of enzyme activity ([7]; 0.12 mM glyphosate): not or not strongly inhibited | inhibition of enzyme activity ([7]; 1.2 mM glyphosate): not being inhibited | reduction of enzyme activity ([7]; 20 mM glyphosate): not reduced | inhibition of enzyme activity [8]: 85% | phytotoxicity, percentage destruction ([9]; 800 g/ha postemergence): 100% | phytotoxicity, percentage destruction ([9]; 1200 g/ha postemergence): 100%

CS(=O)(=O)c1cc(C(F)(F)F)ccc1C(=O)c1cnoc1C1CC1 [isoxaflutole, 4-[4-CF3-2-(methylsulphonyl)benzoyl]-5-cyclopropylisoxazole]
tolerance [1]: tolerant | phytotoxicity, percentage destruction ([2]; 200 g/ha postemergence): 2% | phytotoxicity, percentage destruction ([2]; 400 g/ha postemergence): 3% | protection against treatment ([10]; dose of 400 g/ha): very well protected | protection against treatment, symptoms ([10]; enzyme overexpressed in the chloroplast (vector pRP V)): perfectly protected and shows no symptom | phytotoxicity, percentage destruction ([11]; 200 g/ha postemergence): 4% | phytotoxicity, percentage destruction ([11]; 400 g/ha postemergence): 5% | phytotoxicity, percentage destruction ([9]; 200 g/ha postemergence): 75% | phytotoxicity, percentage destruction ([9]; 400 g/ha postemergence): 85% | time to development of chlorosis ([12]; doses ranging from 50 to 400 g/ha): about 72 hours | very pronounced necrosis, share of the terminal leaves covered ([12]; within one week, doses 50 to 400 g/ha): about 80% | Number of dead plants ([13]; 100 g/ha): 5 | Number of germinated plants ([13]; 100 g/ha): 10 | Number of surviving plants ([13]; 100 g/ha): 5 | Number of dead plants ([13]; 200 g/ha): 4 | Number of germinated plants ([13]; 200 g/ha): 9 | Number of surviving plants ([13]; 200 g/ha): 5 | Number of dead plants ([14]; 100 g/ha): 3 | Number of germinated plants ([14]; 100 g/ha): 5 | Number of surviving plants ([14]; 100 g/ha): 2 | Number of dead plants ([14]; 200 g/ha): 7 | Number of germinated plants ([14]; 200 g/ha): 7 | Number of surviving plants ([14]; 200 g/ha): 0 | Number of dead plants ([15]; 100 g/ha): 6 | Number of germinated plants ([15]; 100 g/ha): 9 | Number of surviving plants ([15]; 100 g/ha): 3 | Number of dead plants ([15]; 200 g/ha): 7 | Number of germinated plants ([15]; 200 g/ha): 10 | Number of surviving plants ([15]; 200 g/ha): 3 | Number of dead plants [16]: 20 | Number of germinated plants [16]: 20 | Number of surviving plants [16]: 0
